# In US11840686B2, “Modulation of prekallikrein (PKK) expression” (Ionis Pharmaceuticals, Inc., priority 2013, dated 2023):
# Strand notation (5' to 3'): a small letter for the sugar, then the base; units joined by * are phosphorothioate-linked, units joined directly phosphodiester-linked; [ ] holds rarer units or linkages, { } end groups; capitals alone tell only the bases. e = 2'-O-(2-methoxyethyl) (MOE); [5mC] = 5-methylcytosine; d = 2'-deoxy (DNA)
# Test system: human PKK mRNA
# Assay: Antisense inhibition of human PKK mRNA in HepaRG cells, 5,000 nM (Example 2)
# Assay type: cell-based
# Procedure: Additional antisense oligonucleotides were designed targeting a PKK nucleic acid and were tested for their effects on PKK mRNA in vitro.
# The chimeric antisense oligonucleotides in the tables below were designed as 5-10-5 MOE gapmers, 4-9-4 MOE gapmers, 4-10-4 MOE gapmers, 4-10-3 MOE gapmers, 3-10-4 MOE gapmers, or 3-10-3 MOE gapmers. The 5-10-5 MOE gapmers are 20 nucleosides in length, wherein the central gap segment comprises of ten 2′-deoxynucleosides and is flanked by wing segments on the 5′ direction and the 3′ direction comprising five nucleosides each. The 4-9-4 MOE gapmers are 17 nucleosides in length, wherein the central gap segment comprises of nine 2′-deoxynucleosides and is flanked by wing segments on the 5′ direction and the 3′ direction comprising four nucleosides each. The 4-10-4 MOE gapmers are 18 nucleosides in length, wherein the central gap segment comprises of ten 2′-deoxynucleosides and is flanked by wing segments on the 5′ direction and the 3′ direction comprising four nucleosides each. The 4-10-3 MOE gapmers are 17 nucleosides in length, wherein the central gap segment comprises of ten 2′-deoxynucleosides and is flanked by wing segments on the 5′ direction and the 3′ direction comprising four and three nucleosides respectively. The 3-10-4 MOE gapmers are 17 nucleosides in length, wherein the central gap segment comprises often 2′-deoxynucleosides and is flanked by wing segments on the 5′ direction and the 3′ direction comprising three and four nucleosides respectively. The 3-10-3 MOE gapmers are 16 nucleosides in length, wherein the central gap segment comprises of ten 2′-deoxynucleosides and is flanked by wing segments on the 5′ direction and the 3′ direction comprising three nucleosides each. Each nucleoside in the 5′ wing segment and each nucleoside in the 3′ wing segment has a 2′-O-methoxyethyl modification. The internucleoside linkages throughout each gapmer are phosphorothioate linkages. All cytosine residues throughout each gapmer are 5-methylcytosines. “Start site” indicates the 5′-most nucleoside to which the gapmer is targeted in the human gene sequence. “Stop site” indicates the 3′-most nucleoside to which the gapmer is targeted in the human gene sequence.
# Cultured HepaRG™ cells at a density of 20,000 cells per well were transfected using electroporation with 5,000 nM antisense oligonucleotide. After a treatment period of approximately 24 hours, RNA was isolated from the cells and PKK mRNA levels were measured by quantitative real-time PCR. Human primer probe set RTS3454 was used to measure mRNA levels. PKK mRNA levels were adjusted according to total RNA content, as measured by RIBOGREEN®. The antisense oligonucleotides were tested in a series of experiments that had similar culture conditions. Results are presented as percent inhibition of PKK, relative to untreated control cells.
# [1] = HepaRG cells, electroporation with 5,000 nM antisense oligonucleotide, approximately 24 hours, PKK mRNA by RT-PCR (RTS3454), relative to untreated control cells, Table 6 experiment
# [2] = human PKK mRNA, HepaRG cells, 5-10-5 motif oligonucleotides targeting SEQ ID NO: 1 and 10
# [3] = Table 9 experiment, HepaRG cells, 20,000 cells per well, electroporation with 5,000 nM antisense oligonucleotide, approx. 24 hours, PKK mRNA by RT-PCR (RTS3454), relative to untreated control cells
# [4] = Table 10 experiment, HepaRG cells, 20,000 cells per well, electroporation with 5,000 nM antisense oligonucleotide, approx. 24 hours, PKK mRNA by RT-PCR (RTS3454), relative to untreated control cells
# [5] = human PKK mRNA in HepaRG cells, 5-10-5 gapmers, Table 14
# [6] = HepaRG cells, 5,000 nM antisense oligonucleotide, 5-10-5 gapmers, Table 16
# [7] = HepaRG cells, electroporation with 5,000 nM antisense oligonucleotide, approximately 24 hours, PKK mRNA by RT-PCR (RTS3454), relative to untreated control cells, Table 5 experiment
# [8] = human PKK mRNA, HepaRG cells, 5,000 nM antisense oligonucleotide, Table 18
# [9] = HepaRG cells, electroporation, 5,000 nM antisense oligonucleotide, approx. 24 hours, primer probe set RTS3454, relative to untreated control cells, Table 11
# [10] = HepaRG cells, electroporation, 5,000 nM antisense oligonucleotide, approx. 24 hours, primer probe set RTS3454, relative to untreated control cells, Table 12
# [11] = HepaRG cells, 5,000 nM antisense oligonucleotide, 5-10-5 gapmers, Table 17
substance,measurement,setting,value
547345 (antisense eA*eG*eA*e[5mC]*eA*d[5mC]*dA*dT*dT*dA*dA*dA*dA*dT*dT*eG*eA*e[5mC]*eT*e[5mC]) [compound 547345],% inhibition,[1],80%
546898 (eA*eA*e[5mC]*eA*eG*dT*dA*dT*d[5mC]*dA*d[5mC]*dT*dG*dT*d[5mC]*e[5mC]*eT*eA*eT*eG; antisense) [compound 546898],% inhibition,[2],91%
546320 (antisense eG*eG*eT*eA*eG*dG*d[5mC]*dA*dT*dA*dT*dT*dG*dG*dT*eT*eT*eT*eT*eG) [compound 546320],% inhibition,[3],72%
same,% inhibition,[4],69%
547600 (antisense eT*eT*eT*e[5mC]*e[5mC]*dT*dA*dT*dA*dA*d[5mC]*dT*dA*dT*dA*eA*e[5mC]*eA*eA*eT) [compound 547600],% inhibition,[5],26%
547679 (antisense eT*eG*eT*eA*e[5mC]*d[5mC]*dT*dA*dT*dA*dT*d[5mC]*dA*d[5mC]*dT*eG*eT*eA*eA*e[5mC]) [compound 547679],% inhibition,[6],28%
547343 (antisense e[5mC]*eA*e[5mC]*eA*eT*dT*dA*dA*dA*dA*dT*dT*dG*dA*d[5mC]*eT*e[5mC]*e[5mC]*eT*e[5mC]) [compound 547343],% inhibition,[1],78%
546891 (e[5mC]*eT*eG*eT*e[5mC]*d[5mC]*dT*dA*dT*dG*dT*d[5mC]*dA*d[5mC]*dT*eG*eT*eA*e[5mC]*e[5mC]; antisense) [compound 546891],% inhibition,[2],81%
547283 (antisense eA*eG*eT*eT*eG*d[5mC]*dT*dT*dG*d[5mC]*dT*dT*dG*dA*dA*eT*eA*eA*eA*eA) [compound 547283],% inhibition,[7],67%
546861 (eT*eA*eA*e[5mC]*eA*dA*dT*dA*dT*d[5mC]*dA*d[5mC]*dT*dG*dT*e[5mC]*e[5mC]*eT*eA*eT; antisense) [compound 546861],% inhibition,[5],68%
548734 (DNA eT*e[5mC]*eA*e[5mC]*dT*dG*dT*dA*d[5mC]*dT*dA*dG*dT*dT*eT*e[5mC]*e[5mC]; antisense) [compound 548734],% inhibition,[8],51%
547428 (eT*e[5mC]*eA*eA*eA*dG*dA*dG*dT*dA*dA*d[5mC]*d[5mC]*dA*dG*eA*eG*e[5mC]*eT*e[5mC]; antisense) [compound 547428],% inhibition,"Table 8, HepaRG cells, electroporation with 5,000 nM antisense oligonucleotide, approx. 24 hours, PKK mRNA by RT-PCR (RTS3454), relative to untreated control cells",78%
546368 (antisense eG*eG*eT*eT*eG*dT*dA*dA*dA*dA*dA*dT*dT*dG*d[5mC]*e[5mC]*eT*eA*eG*eA) [compound 546368],% inhibition,[9],44%
547629 (antisense eA*e[5mC]*eT*e[5mC]*eT*dA*d[5mC]*d[5mC]*dT*dA*dT*dA*dA*d[5mC]*dT*e[5mC]*eT*eA*eA*e[5mC]) [compound 547629],% inhibition,[2],0%
547365 (eT*eG*eA*eG*eA*dA*d[5mC]*d[5mC]*d[5mC]*dT*dG*dG*d[5mC]*dA*dA*e[5mC]*eA*eT*e[5mC]*e[5mC]; antisense) [compound 547365],% inhibition,"Table 7, HepaRG cells, electroporation with 5,000 nM antisense oligonucleotide, approx. 24 hours, PKK mRNA by RT-PCR (RTS3454), relative to untreated control cells",81%
547530 (antisense eA*e[5mC]*eA*eA*e[5mC]*dA*d[5mC]*dA*d[5mC]*dA*dG*dT*d[5mC]*dA*dT*eG*eG*eA*eG*eA) [compound 547530],% inhibition,[10],63%
547531 (antisense eT*eT*eA*eT*eT*dT*d[5mC]*dA*d[5mC]*dA*dA*d[5mC]*dA*d[5mC]*dA*e[5mC]*eA*eG*eT*e[5mC]) [compound 547531],% inhibition,[10],69%
547008 (eT*eT*eG*eG*eT*dG*dG*dT*dG*dG*dG*dA*dT*dT*dG*eG*eT*eG*eG*eT; antisense) [compound 547008],% inhibition,[11],81%
547505 (antisense eG*eA*e[5mC]*eT*eT*dG*dA*dA*d[5mC]*dT*d[5mC]*dA*dG*dG*dT*eT*eG*eT*eA*eA) [compound 547505],% inhibition,[9],69%
546397 (eT*eT*eT*eT*eT*dT*dG*dA*dT*d[5mC]*dT*dT*dT*d[5mC]*dA*e[5mC]*e[5mC]*eA*eT*eT; antisense) [compound 546397],% inhibition,[10],55%
546875 (eA*e[5mC]*eT*eA*eT*dA*dA*d[5mC]*dA*dA*dT*dA*dT*d[5mC]*dA*e[5mC]*eT*eG*eT*eA; antisense) [compound 546875],% inhibition,[5],33%
546944 (eG*e[5mC]*e[5mC]*eA*e[5mC]*dT*dA*dA*d[5mC]*d[5mC]*d[5mC]*dA*d[5mC]*d[5mC]*dT*e[5mC]*eT*eT*eA*eA; antisense) [compound 546944],% inhibition,[6],42%
546313 (antisense eG*eG*e[5mC]*eG*eA*dT*dA*dT*d[5mC]*dA*dT*dG*dA*dT*dT*e[5mC]*e[5mC]*e[5mC]*eT*eT) [compound 546313],% inhibition,[3],60%
same,% inhibition,[4],75%
548778 (antisense eA*eT*eA*eA*d[5mC]*dA*dG*dT*dA*dT*d[5mC]*dA*d[5mC]*eT*eG*eT*eA) [compound 548778],% inhibition,[8],20%
546867 (eA*e[5mC]*e[5mC]*eT*eA*dT*dA*dA*d[5mC]*dT*d[5mC]*dT*dA*dA*d[5mC]*eA*eG*eT*eA*eT; antisense) [compound 546867],% inhibition,[5],40%
546364 (antisense eG*eG*eA*e[5mC]*eT*dG*d[5mC]*dT*dT*d[5mC]*dT*d[5mC]*dA*dT*dG*e[5mC]*eT*eG*eG*eT) [compound 546364],% inhibition,[9],61%
548728 (DNA eT*eA*e[5mC]*eT*dA*dG*dT*dT*dT*d[5mC]*d[5mC]*dT*dA*dT*eA*eA*e[5mC]; antisense) [compound 548728],% inhibition,"HepaRG cells, 5,000 nM antisense oligonucleotide, human PKK mRNA, Table 18",0%
547732 (eA*eG*eG*eA*eT*dT*dG*dG*dT*dG*dG*dT*dG*dG*dG*eA*eT*eT*eG*eG; antisense) [compound 547732],% inhibition,[11],0%
546890 (eT*eG*eT*e[5mC]*e[5mC]*dT*dA*dT*dG*dT*d[5mC]*dA*d[5mC]*dT*dG*eT*eA*e[5mC]*e[5mC]*eT; antisense) [compound 546890],% inhibition,[2],78%
547727 (eT*eG*eG*e[5mC]*eA*dG*dG*dA*dT*dT*dG*dG*dT*dG*dG*eT*eG*eG*eA*eA; antisense) [compound 547727],% inhibition,[11],0%
546411 (eA*eT*eA*eT*eT*dG*dA*d[5mC]*dT*dT*dT*dG*dG*dG*dT*eT*eT*e[5mC]*eT*eG; antisense) [compound 546411],% inhibition,[10],56%
546164 (eT*eG*eA*eT*eT*dG*dA*dA*d[5mC]*dT*dT*dG*d[5mC]*dT*dG*eG*eA*eA*eG*eA; antisense) [compound 546164],% inhibition,[7],33%
547471 (antisense e[5mC]*e[5mC]*eT*eT*eT*d[5mC]*dT*d[5mC]*d[5mC]*dT*dT*d[5mC]*dG*dA*dG*eA*eA*eG*e[5mC]*e[5mC]) [compound 547471],% inhibition,[3],58%
same,% inhibition,[4],43%
547541 (antisense eT*eA*eT*eA*eG*dA*dT*dG*dT*dT*dT*dA*dT*dT*dG*eT*eA*eG*e[5mC]*e[5mC]) [compound 547541],% inhibition,[10],36%
547652 (eT*e[5mC]*eA*e[5mC]*eT*dG*dT*dA*d[5mC]*d[5mC]*dT*dA*dT*dA*dA*e[5mC]*eA*eG*eT*eA; antisense) [compound 547652],% inhibition,[2],59%
547450 (antisense e[5mC]*eT*e[5mC]*eT*eT*dT*dT*dA*dT*dT*dT*dG*dT*dG*dA*eG*eA*eA*eA*eG) [compound 547450],% inhibition,[3],71%
same,% inhibition,[4],67%
